In US10030020B2, “Spirocycle compounds and methods of making and using same” (Abide Therapeutics, Inc., priority 2016, dated 2018):

What was measured:
FAAH [1] = molecular target: T1, FAAH (Mus musculus (Mouse), UniProt O08914); test: Mouse brain proteomes from inhibitor treated mice (oral gavage, sacrificed 4 h after administration, ABPP analysis), FAAH; format: in vivo, mouse (C57Bl/6J); conditions: 5 mg/kg oral gavage
How it was run: (§1)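 Wild-type C57Bl/6J mice were dosed by oral gavage in vehicle (e.g. PEG400/Ethanol/PBS 7/2/1) and sacrificed 4 h later. Brain proteomes were analysed by activity-based protein profiling; values are % inhibition at 5 mg/kg.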

MAGL [2] = molecular target: T2, MAGL (Mus musculus (Mouse), UniProt O35678); test: Mouse brain proteomes from inhibitor treated mice (oral gavage, sacrificed 4 h after administration, ABPP analysis); format: in vivo, mouse (C57Bl/6J); conditions: 5 mg/kg oral gavage
How it was run: as §1

ABHD6 [3] = molecular target: T3, ABHD6 (Mus musculus (Mouse), UniProt Q8R2Y0); test: Mouse brain proteomes from inhibitor treated mice (oral gavage, sacrificed 4 h after administration, ABPP analysis), ABHD6; format: in vivo, mouse (C57Bl/6J); conditions: 5 mg/kg oral gavage
How it was run: as §1

ABHD6 [4] = molecular target: T3, ABHD6; test: In vitro competitive activity-based protein profiling (mouse brain membrane fraction or cell lysates), ABHD6 band; format: biochemical; conditions: mouse; for inhibition at 1 µM: read-out: ABHD6 % Inh 1 μM (mouse)
How it was run: (§2)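 Competitive ABPP: proteome 1.0 mg/mL protein + inhibitor, 30 min, 37° C; FP-Rh probe (stock 50 μM in DMSO) added, 30 min, 37° C; SDS quench, SDS-PAGE, fluorescent band intensity read.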

FAAH [5] = molecular target: T1, FAAH; test: In vitro competitive activity-based protein profiling (mouse brain membrane fraction or cell lysates), FAAH band; format: biochemical; conditions: mouse; for inhibition at 1 µM: read-out: FAAH % Inh 1 μM (mouse)
How it was run: as §2

MAGL [6] = molecular target: T2, MAGL; test: In vitro competitive activity-based protein profiling (mouse brain membrane fraction or cell lysates), MAGL band; format: biochemical; conditions: mouse; for inhibition at 1 µM: read-out: MAGL % Inh 1 μM (mouse)
Method: In Vitro Competitive Activity-Based Protein Profiling.
Proteomes (mouse brain membrane fraction or cell lysates) (50 μL, 1.0 mg/mL total protein concentration) were preincubated with varying concentrations of inhibitors at 37° C. After 30 min, FP—Rh (1.0 μL, 50 μM in DMSO) was added and the mixture was incubated for another 30 min at 37° C. Reactions were quenched with SDS loading buffer (50 μL-4×) and run on SDS-PAGE.

MAGL [7] = molecular target: MAGL (Homo sapiens (Human), UniProt Q99685); test: In vitro competitive activity-based protein profiling (human prefrontal cortex or cell membrane fractions; hMAGL expressed in HEK293T cells); format: biochemical; conditions: human
How it was run: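 Human prefrontal cortex or cell membrane proteomes (1.0-2.0 mg/mL), or lysates of HEK293T cells expressing hMAGL diluted into mock proteome, preincubated with inhibitor 30 min at 37° C. FP-Rh or JW912 probe then added for 30 min at room temperature. Residual labeling resolved by SDS-PAGE.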

T1 sequence (O08914 whole entry): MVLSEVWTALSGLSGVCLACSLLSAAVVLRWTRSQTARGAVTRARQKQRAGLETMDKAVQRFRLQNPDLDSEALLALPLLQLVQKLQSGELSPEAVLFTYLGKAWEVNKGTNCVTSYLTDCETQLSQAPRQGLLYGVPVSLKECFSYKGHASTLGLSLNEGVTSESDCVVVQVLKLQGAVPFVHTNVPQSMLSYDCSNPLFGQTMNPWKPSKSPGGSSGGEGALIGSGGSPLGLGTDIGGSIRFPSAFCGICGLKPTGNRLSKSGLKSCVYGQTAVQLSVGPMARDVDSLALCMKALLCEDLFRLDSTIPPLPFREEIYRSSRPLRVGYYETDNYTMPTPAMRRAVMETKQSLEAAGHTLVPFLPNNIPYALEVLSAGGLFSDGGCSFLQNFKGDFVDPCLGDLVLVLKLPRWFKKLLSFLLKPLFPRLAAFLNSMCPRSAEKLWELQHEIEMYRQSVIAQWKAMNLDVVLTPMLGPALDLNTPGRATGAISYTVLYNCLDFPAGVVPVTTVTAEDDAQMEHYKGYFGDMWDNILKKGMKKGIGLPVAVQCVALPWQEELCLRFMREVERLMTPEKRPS
T2 sequence (O35678 whole entry): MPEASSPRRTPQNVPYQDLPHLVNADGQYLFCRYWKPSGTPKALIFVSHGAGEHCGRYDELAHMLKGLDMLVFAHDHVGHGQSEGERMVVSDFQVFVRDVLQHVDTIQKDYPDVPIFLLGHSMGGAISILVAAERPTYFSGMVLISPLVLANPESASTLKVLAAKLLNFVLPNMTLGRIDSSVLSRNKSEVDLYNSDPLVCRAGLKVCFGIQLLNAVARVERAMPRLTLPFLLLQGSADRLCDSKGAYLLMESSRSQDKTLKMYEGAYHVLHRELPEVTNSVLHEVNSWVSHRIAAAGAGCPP
T3 sequence (Q8R2Y0 whole entry): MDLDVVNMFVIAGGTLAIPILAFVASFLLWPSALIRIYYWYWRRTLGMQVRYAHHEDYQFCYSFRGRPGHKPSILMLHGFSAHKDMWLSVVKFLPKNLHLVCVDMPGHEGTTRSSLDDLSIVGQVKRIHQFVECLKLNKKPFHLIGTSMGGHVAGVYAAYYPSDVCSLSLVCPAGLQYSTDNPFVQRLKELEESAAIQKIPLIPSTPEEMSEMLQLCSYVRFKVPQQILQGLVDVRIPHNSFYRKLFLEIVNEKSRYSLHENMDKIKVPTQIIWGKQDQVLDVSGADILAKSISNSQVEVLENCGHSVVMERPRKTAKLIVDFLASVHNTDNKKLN
Chain of MAGL (Homo sapiens (Human), UniProt Q99685) (Q99685 whole entry): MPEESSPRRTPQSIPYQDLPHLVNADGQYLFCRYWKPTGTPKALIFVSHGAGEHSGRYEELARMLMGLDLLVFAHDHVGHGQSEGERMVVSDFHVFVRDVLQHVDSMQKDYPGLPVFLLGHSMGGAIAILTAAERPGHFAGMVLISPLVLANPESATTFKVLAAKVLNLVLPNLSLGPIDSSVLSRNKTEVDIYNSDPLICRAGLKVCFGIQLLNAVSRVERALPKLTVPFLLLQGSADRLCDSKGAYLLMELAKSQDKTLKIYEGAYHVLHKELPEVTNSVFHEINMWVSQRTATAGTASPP

| SMILES | FAAH % Inh 5 mg/kg (mouse) (FAAH [1]) | MAGL % Inh 5 mg/kg (mouse) (MAGL [2]) | ABHD6 % Inh 5 mg/kg (mouse) (ABHD6 [3]) | inhibition at 1 µM (ABHD6 [4]) | inhibition at 1 µM (FAAH [5]) | inhibition at 1 µM (MAGL [6]) | IC50 (MAGL [7]) | IC50 (ABHD6 [4]) | IC50 (FAAH [5]) | IC50 (MAGL [6]) |
| --- | --- | --- | --- | --- | --- | --- | --- | --- | --- | --- |
| CC1(C(=O)O)CCCN(c2cc(CN3CCCC34CCN(C(=O)OC(C(F)(F)F)C(F)(F)F)CC4)cc(C(F)(F)F)c2)C1 (stereo not shown) [Example 221] | # (# is <25%) | ### (### is ≥75%) | # (# is <25%) | < 25% | < 25% | > 75% | < 100 nM |  |  |  |
| CC1(C(=O)O)CCN(c2cc(C(F)(F)F)ccc2CN2CCCC23CCN(C(=O)OC(C(F)(F)F)C(F)(F)F)CC3)C1 (stereo not shown) [Example 230] | # (# is <25%) | ## (## is equal to or greater than 25% but less than 75%) | # (# is <25%) | < 25% | < 25% | > 75% | < 100 nM |  |  |  |
| O=C(O)C1CCN(c2cc(F)cc(CN3CCCC34CCN(C(=O)OC(C(F)(F)F)C(F)(F)F)CC4)c2)CC1 [Example 236] | # (# is <25%) | ### (### is ≥75%) | # (# is <25%) | < 25% | < 25% | > 75% | < 100 nM |  |  |  |
| O=C(O)C1CCN(Cc2cc(C(F)(F)F)ccc2CN2CCCC23CCN(C(=O)OC(C(F)(F)F)C(F)(F)F)CC3)CC1 [Example 238] | # (# is <25%) | ### (### is ≥75%) | # (# is <25%) | < 25% | < 25% | > 75% | < 100 nM | > 1000 nM | > 1000 nM | 100 to 1000 nM |
| O=C(O)C1CCN(c2cc(S(F)(F)(F)(F)F)ccc2CN2CCCC23CCN(C(=O)OC(C(F)(F)F)C(F)(F)F)CC3)CC1 [Example 240] | # (# is <25%) | ### (### is ≥75%) | # (# is <25%) | < 25% | < 25% | > 75% | < 100 nM |  |  |  |
| O=C(O)C1CCN(Cc2cc(CN3CCCC34CCN(C(=O)OC(C(F)(F)F)C(F)(F)F)CC4)cc(C(F)(F)F)c2)CC1 [Example 244] | # (# is <25%) | ### (### is ≥75%) | # (# is <25%) | < 25% | < 25% | > 75% | < 100 nM |  |  |  |
| O=C(O)C1CCN(c2cc(OC(F)(F)F)ccc2CN2CCCC23CCN(C(=O)OC(C(F)(F)F)C(F)(F)F)CC3)CC1 [Example 248] | # (# is <25%) | ### (### is ≥75%) | # (# is <25%) | < 25% | < 25% | > 75% | < 100 nM |  |  |  |
| N#Cc1ccc(CN2CCCC23CCN(C(=O)OC(C(F)(F)F)C(F)(F)F)CC3)c(N2CCC(C(=O)O)CC2)c1 [Example 249] | # (# is <25%) | ## (## is equal to or greater than 25% but less than 75%) | # (# is <25%) | < 25% | < 25% | > 75% | < 100 nM |  |  |  |
| O=C(O)C1CCN(Cc2cc(CN3CCCC34CCN(C(=O)OC(C(F)(F)F)C(F)(F)F)CC4)cc(C(F)(F)F)c2)C1 (stereo not shown) [Example 253] | # (# is <25%) | ## (## is equal to or greater than 25% but less than 75%) | # (# is <25%) | < 25% | < 25% | > 75% | < 100 nM |  |  |  |
| CC1(C(=O)O)CN(c2cc(C(F)(F)F)ccc2CN2CCC3(CCN(C(=O)OC(C(F)(F)F)C(F)(F)F)CC3)C2)CCO1 (stereo not shown) [Example 256] | # (# is <25%) | # (# is <25%) | # (# is <25%) | < 25% | < 25% | > 75% | < 100 nM |  |  |  |
| O=C(O)C1CCN(Cc2cc(C(F)(F)F)ccc2CN2CCCC23CCN(C(=O)OC(C(F)(F)F)C(F)(F)F)CC3)C1 (stereo not shown) [Example 262] | # (# is <25%) | ## (## is equal to or greater than 25% but less than 75%) | # (# is <25%) | < 25% | < 25% | > 75% | < 100 nM |  |  |  |
| CS(=O)(=O)C1CCN(c2cc(C(F)(F)F)ccc2CN2CCCC23CCN(C(=O)OC(C(F)(F)F)C(F)(F)F)CC3)CC1 [Example 267] | # (# is <25%) | # (# is <25%) | # (# is <25%) | ≥ 75% | < 25% | > 75% | < 100 nM |  |  |  |
| CS(=O)(=O)C1CN(c2cc(C(F)(F)F)ccc2CN2CCCC23CCN(C(=O)OC(C(F)(F)F)C(F)(F)F)CC3)C1 [Example 268] | # (# is <25%) | ## (## is equal to or greater than 25% but less than 75%) | ## (## is equal to or greater than 25% but less than 75%) | 25 to 75% | < 25% | > 75% | < 100 nM |  |  |  |
| O=C(O)C1CCN(Cc2cc(CN3CCCC34CCN(C(=O)OC(C(F)(F)F)C(F)(F)F)CC4)cc(OC(F)(F)F)c2)CC1 [Example 269] | # (# is <25%) | ## (## is equal to or greater than 25% but less than 75%) | # (# is <25%) | < 25% | < 25% | > 75% | < 100 nM |  |  |  |
| O=C(O)C1CCN(Cc2cc(CN3CCCC34CCN(C(=O)OC(C(F)(F)F)C(F)(F)F)CC4)cc(OC(F)(F)F)c2)C1 (stereo not shown) [Example 270] | # (# is <25%) | ## (## is equal to or greater than 25% but less than 75%) | # (# is <25%) | < 25% | < 25% | > 75% | < 100 nM |  |  |  |
| O=C(O)C1CCN(Cc2cc(Cl)cc(CN3CCCC34CCN(C(=O)OC(C(F)(F)F)C(F)(F)F)CC4)c2)C1 (stereo not shown) [Example 272] | # (# is <25%) | ### (### is ≥75%) | # (# is <25%) | < 25% | < 25% | > 75% | < 100 nM |  |  |  |
| O=C(O)[C@H]1CCCCN1c1cc(CN2CCCC23CCN(C(=O)OC(C(F)(F)F)C(F)(F)F)CC3)cc(C(F)(F)F)c1 [Example 274] | # (# is <25%) | ### (### is ≥75%) | # (# is <25%) | 25 to 75% | < 25% | > 75% | < 100 nM |  |  |  |
| NC(=O)C1CCN(Cc2cc(C(F)(F)F)ccc2CN2CCCC23CCN(C(=O)OC(C(F)(F)F)C(F)(F)F)CC3)CC1 [Example 275] | # (# is <25%) | ### (### is ≥75%) | # (# is <25%) | 25 to 75% | < 25% | > 75% | < 100 nM |  |  |  |
| O=C(O)C1CCN(C(=O)c2cc(C(F)(F)F)ccc2CN2CCCC23CCN(C(=O)OC(C(F)(F)F)C(F)(F)F)CC3)CC1 [Example 281] | # (# is <25%) | # (# is <25%) | # (# is <25%) | 25 to 75% | < 25% | > 75% | < 100 nM |  |  |  |
